# Key:
# [1] = tested on: rat primary cerebral cortex cell cultures; test: APPs secretion in rat primary cortical cell cultures; assay type: cell-based; details: 100 μm
# [2] = tested on: rat primary hippocampal cell cultures; test: APPs secretion in rat primary hippocampal cell cultures; assay type: cell-based; details: 100 μm
# rabbits with nbm lesions = test: CSF and cortical Aβ in hypocholinergic (nbm-lesioned) rabbits; assay type: in vivo, New Zealand White rabbits; details: 4 weeks
# Description: It is known that experimentally-induced cortical cholinergic denervation results in biochemical elevations of cortical Aβ concentrations and in histologic Aβ deposition (Beach et al, Neurosci Lett 283: 9–12, 2000), and that administration of muscarinic Ml-selective agents to normal animals decreases CSF AP concentrations {Beach et al Brain Res. 905: 220–223, 2001}.
# Twenty-eight female New Zealand White rabbits, about 2.5 kg each (young adults) were used. Twenty-one received lesions of the cholinergic nucleus basalis magnocellularis (nbm). The lesion was accomplished with unilateral i.c.v. injections of an immunotoxin consisting of the ribosomal toxin saporin conjugated to the monoclonal antibody ME20.4, which is directed against the low-affinity neurotrophin receptor, p75. The ME20.4 antibody is made against monkey p75 and also recognizes rabbit p75. The dose of immunotoxin was 32.4 μg in 12 μl; this was delivered to the right lateral ventricle 2 mm lateral to the bregma. Seven animals received i.c.v. injections of sterile normal saline (sham lesion). Animals which received the immunotoxin were divided into 3 groups of 7. […] Another group received physostigmine hemisalicylate in normal saline by s.c. osmotic pump at a daily dose of 3 mg/kg. The third group received twice-daily sterile saline s.c. injections. The animals which received a sham lesion were implanted with s.c. osmotic pumps filled with sterile normal saline. Animals were euthanized 4 weeks after surgery. […] Cerebrospinal fluid was taken from the cisterna magna of all animals at the time of sacrifice; the brain was removed and sliced coronally into 0.5 cm slices. […] The other slices were frozen on sheets of dry ice (the other slices are the non-fixed 0.5 cm coronal slices of cerebrum, brainstem and cerebellum).
# muscarinic receptor = test: [3H]OXO-M competition binding; details: rat cortex
# M1 receptors = biological target: T1, M1 receptors (Rattus norvegicus, UniProt P08482); test: [3H]PZ competition binding to rat cortical membranes; details: rat cortex
# T1 construct: from tissue; host or cells: rat cortical membranes
# T1 sequence (P08482 1-460): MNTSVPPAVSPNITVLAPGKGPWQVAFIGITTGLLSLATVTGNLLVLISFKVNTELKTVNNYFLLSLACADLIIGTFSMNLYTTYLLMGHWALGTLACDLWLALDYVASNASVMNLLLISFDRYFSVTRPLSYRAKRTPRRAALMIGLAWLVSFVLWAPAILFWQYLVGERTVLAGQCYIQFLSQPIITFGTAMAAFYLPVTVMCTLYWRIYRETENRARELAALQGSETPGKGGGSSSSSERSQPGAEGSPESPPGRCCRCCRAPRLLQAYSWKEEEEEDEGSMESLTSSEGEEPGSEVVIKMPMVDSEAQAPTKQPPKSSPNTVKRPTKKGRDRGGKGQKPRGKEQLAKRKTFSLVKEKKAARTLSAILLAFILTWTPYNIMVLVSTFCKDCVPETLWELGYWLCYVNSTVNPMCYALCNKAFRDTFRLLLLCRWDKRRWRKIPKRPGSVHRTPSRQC
# Description: Pirenzepine (PZ), a muscarinic antagonist, binds preferentially to M1 receptors while OXO-M binds to all mAChR subtypes non-selectively; the ratio between the Ki values for PZ versus that of OXO-M may be indicative of the selectivity of the tested compound. The smaller the ratio, the more M1 selective is the tested compound. […] The OXO-M/PZ ratio is ˜0.36 showing a moderately high selectivity for the M1 receptor.
# M2 mAChR = biological target: T2, M2 mAChR (Homo sapiens, UniProt P08172); test: Intracellular Ca increase in modified cell cultures, M2; assay type: cell-based
# T2 construct: expressed in transfected cells; host or cells: 'modified cell cultures' giving a Ca increase; modification not described
# T2 sequence (P08172 whole entry): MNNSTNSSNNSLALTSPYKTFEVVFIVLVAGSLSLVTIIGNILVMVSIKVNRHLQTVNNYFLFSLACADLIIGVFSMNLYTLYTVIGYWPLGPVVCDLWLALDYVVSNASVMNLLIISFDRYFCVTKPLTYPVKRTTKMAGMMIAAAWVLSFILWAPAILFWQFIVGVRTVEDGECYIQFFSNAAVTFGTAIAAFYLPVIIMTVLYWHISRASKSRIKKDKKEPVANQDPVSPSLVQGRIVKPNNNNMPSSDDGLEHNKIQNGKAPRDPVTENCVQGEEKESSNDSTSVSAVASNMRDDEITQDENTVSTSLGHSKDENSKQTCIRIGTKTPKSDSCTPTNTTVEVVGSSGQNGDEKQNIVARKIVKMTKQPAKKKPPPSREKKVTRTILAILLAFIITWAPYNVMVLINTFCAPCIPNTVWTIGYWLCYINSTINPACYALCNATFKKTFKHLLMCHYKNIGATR
compound,measurement,setting,value
"CNC(=O)Oc1ccc2c(c1)[C@]1(C)CCN(C)[C@@H]1N2C [physostigmine, reference compound]","APPs secretion, activity in words",[1],inactive
same,"APPs secretion, activity in words",[2],inactive
same,"Histologic Aβ deposition, % of the lesioned, untreated group",rabbits with nbm lesions,6.4%
"CC[C@H]1SC2(CCNCC2)NC1=O [AF291, (R)-2-Ethyl-1-thia-4,8-diaza-spiro[4.5]decan-3-one]",Ki,muscarinic receptor,6.56 µM
same,Ki,M1 receptors,10.7 µM
"C[N+](C)(C)CCOC(N)=O [carbachol, reference compound]",Increase in activity on the M2 mAChR,M2 mAChR,8 fold

# — US7049321B2, “Methods and pharmaceutical compositions for treatment of central and peripheral nervous system disorders and compounds useful therefor” (Israel Institute for Biological Research, priority 2002, dated 2006)
